From patent US20110142866A1, “PEPTIDE ANALOGUES AND CONJUGATES THEREOF” (Eldrug S.A., priority 2007, published 2011)
Values joined by “and” are separate entries in the source; they are usually repeats but may differ in a detail not shown here. Equal values may be shown once. “Also recorded” adds a separate entry of the source.

Legend:
[1] = tested on: respective peptides conjugated to BSA or KLH; experiment: ELISA total IgG antibody responses to the respective peptide; format: in vivo, SJL/J mice; design: key to Antibody: −: negative; +/−: very weak; +: weak; ++: moderate; +++: strong
Procedure: Blood was collected and sera isolated from mice prior to and 4 weeks after immunization with CFA or 14 days after the last immunization with reduced mannan conjugates. MBP87-99 or [A^91, A^96]MBP87-99 peptides conjugated to BSA or KLH were coated onto polyvinyl chloride (PVC) microtiter plates at 10 μg/ml in 0.2 M NaHCO3 buffer, pH 9.6, 0/N at 4° C. Non-specific binding was blocked with 2% BSA for 1.0 h at RT. After washing (0.05 Tween 20/PBS), serial dilutions of sera were added and incubated for a further 2 h at RT. The plates were washed and bound antibody was detected using HRP-conjugated sheep anti-mouse antibody (1/1000 dilution in PBS) (Amersham, UK) and developed using 2,2′-azino-di(3-ethylbenzthiazoline)6-sulfonic acid (ABTS) (Sigma, UK). Absorbance at 405 nm was recorded using a Fluostar Optima microplate reader (BMG labtech, Offenburg, Germany).
ELISpot assays for IFN-γ and IL-4 secretion by T cells and ELISA assays for binding of sera to native MBP protein or peptide were carried out as previously described^3, 4, 20, 21. Mean values were compared using the Student's two-tailed t-test. P value threshold of p<0.01 indicates a statistically significant difference.

spleen cells = experiment: T cell proliferation assay ([3H]-thymidine uptake); format: in vivo, SJL/J mice; design: key to Proliferation / Proliferation cross reaction: −: negative; +/−: very weak; +: weak; ++: moderate; +++: strong; conditions: for Proliferation cross reaction: Table 3, complete Freund's adjuvant; for proliferation of MBP83-99 specific T cells to recall analogue (in words): mice immunized with agonist MBP83-99 in CFA; for Proliferation: Table 2, peptide analogues conjugated to reduced mannan-KLH
Procedure: Spleen cells from immunized SJL/J mice were isolated 14 days after immunization and assessed by T cell proliferation assay. 1×10^5 spleen cells in 100 μl culture media were seeded into 96 U-bottom plates and incubated for 1-6 days at 37° C. in the presence of recall peptide (10 μg/ml), ConA (positive control) or no peptide (negative control). Proliferation was assessed by adding 1 μCi of [^3H]-thymidine per well to one plate per time point (days 1-6). Cells were incubated for a further 6 h before harvesting onto glass fiber filters. [^3H] uptake was measured using a β-scintillation counter (Top Count Gamma Counter, Packard, USA).
Proliferation assays were used to detect the level of antigen specific T cells by measuring the [3H]thymidine uptake of T cells proliferating in the presence of peptides on days 1-6. Spleen cells from mice immunized with linear agonist MBP83-99 peptide were isolated 28 days after immunization and assessed by T cell proliferation assay. T cells proliferated to MBP83-99 peptide, reaching a peak by day 5 of up to 25 000 cpm (FIG. 9D). In addition, the MBP83-99 specific T cells cross-reacted with linear [A^91]MBP83-99 and mutant cyclo(83-99)[A^91]MBP83-99 peptide analogues (FIG. 9D). The cyclo(83-99)[A^91]MBP83-99 peptide proliferated similarly to linear [A^91]MBP83-99 peptide, reaching a peak on day 5 (FIG. 9D). ConA (internal control) yielded proliferation of more than 75 000 cpm peaked on day 2 and was excluded from the figures, and no peptide (cells alone) was used as background negative control.

[2] = tested on: native bovine MBP protein; experiment: ELISA cross reaction of sera with native MBP protein; format: in vivo; design: key to Cross reaction with native MBP / Ab Cross reaction with native MBP: −: negative; +/−: very weak; +: weak; ++: moderate; +++: strong; conditions: for Cross reaction with native MBP: Table 2, peptide analogues conjugated to reduced mannan-KLH; for Ab Cross reaction with native MBP: Table 3, peptide analogues emulsified in complete Freund's adjuvant; for cross reaction of sera with native MBP protein (in words): peptide conjugated to reduced mannan, 1/200 and 1/1,600 sera dilution
Procedure: Blood was collected and sera isolated from mice prior to and 2 weeks after immunization. MBP83-99 peptides conjugated to BSA were coated onto polyvinyl chloride (PVC) microtiter plates at 10 μg/ml or with 2.5 μg/ml native MBP bovine protein in 0.2 M NaHCO3 buffer, pH 9.6, overnight at 4′C and non-specific binding was blocked with 2% BSA for 1.0 hour at room temperature. After washing (0.05% Tween 20/PBS), serial dilutions of sera were added and incubated for a further 2.0 hours at room temperature. The plates were washed and bound antibody was detected using HRP-conjugated sheep anti-mouse antibody (1:1000 in PBS) (Amersham, UK) and developed using 2,2″-azino-di(3-ethylbenzthiazoline) sulphonate (ABTS) (Sigma, UK). Absorption at 405 nm was recorded using an ELISA microplate reader.

[3] = Table 2, peptide analogues conjugated to reduced mannan-KLH
[4] = Table 3, peptide analogues emulsified in complete Freund's adjuvant
[5] = peptide conjugated to reduced mannan

Compound | Antibody [1, 3] | Antibody [1, 4] | total IgG antibody titer [1, 5] | IgG antibody responses (in words) ([1]; peptide emulsified in CFA) | Proliferation cross reaction (spleen cells) | proliferation of MBP83-99 specific T cells to recall analogue (in words) (spleen cells) | Cross reaction with native MBP [2] | Ab Cross reaction with native MBP [2] | cross reaction of sera with native MBP protein (in words) [2] | subclass of the antibodies induced [1, 5] | T cell proliferation, peak (spleen cells; mice immunized with linear MBP83-99 (CFA), spleen cells 28 days, recall peptide, peak by day 5) | IgG antibody responses (in words) [1, 5] | Proliferation (spleen cells) | T cell proliferation to recall peptide (in words) (spleen cells; immunization with reduced mannan-KLH-peptide) | cross reaction of sera with native MBP protein (in words) ([2]; listed as [A^91, R^96]MBP83-99)
cyclo(83-99)E N P V V H F F A N I V T P R T P (ENPVVHFFANIVTPRTP; cyclised or stapled) [cyclo(83-99)[A^91]MBP83-99] | +/− | + | 1/800 and 1/1600 | enhanced | ++ | cross-reacted | + | − | reacted moderately |  |  |  |  |  | 
E N P V V H F F A N I V T P R T P (ENPVVHFFANIVTPRTP) [[A^91]MBP83-99] | + | ++ | 1/640 | able to induce IgG antibody responses | ++ | cross-reacted | + | ++ | reacted moderately; also recorded: cross reacted weakly | IgG1 |  |  |  |  | 
E N P V V H F F K N I V T P R T P (ENPVVHFFKNIVTPRTP) [MBP83-99, reference compound] | +++ | − |  | did not generate IgG antibodies |  |  | +++ | − | highly cross reacted; also recorded: cross reactive |  | up to 25 000 cpm |  |  |  | 
E N P V V H F F F N I V T P R T P (ENPVVHFFFNIVTPRTP) [[F^91]MBP83-99] | +/− | ++ | 1/800 |  | ++ |  | − | − | did not react |  |  | weak | +++ | strong | 
E N P V V H F F R N I V T A R T P (ENPVVHFFRNIVTARTP) [[R^91, A^96]MBP83-99] | +++ | ++ |  |  | +/− | weakly proliferated | +++ | − | cross reactive | IgG1 |  |  |  |  | highly cross reacted
E N P V V H F F Y N I V T P R T P (ENPVVHFFYNIVTPRTP) [[Y^91]MBP83-99] | +++ | − |  |  | +/− | weakly proliferated | − | − | did not cross react | IgG1 |  |  | +/− |  | 
CC[C@H](C)[C@@H]1NC(=O)[C@H](CC(N)=O)NC(=O)[C@H](CCCCN)NC(=O)[C@H](Cc2ccccc2)NC(=O)[C@H](Cc2ccccc2)NC(=O)[C@H](Cc2c[nH]cn2)NC(=O)[C@H](C(C)C)NC(=O)[C@H](C(C)C)NC(=O)[C@@H]2CCCN2C(=O)[C@H](CC(N)=O)NC(=O)[C@H](CCC(=O)O)NC(=O)[C@@H]2CCCN2C(=O)[C@H]([C@@H](C)O)NC(=O)[C@H](CCCNC(=N)N)NC(=O)[C@@H]2CCCN2C(=O)[C@H]([C@@H](C)O)NC(=O)[C@H](C(C)C)NC1=O [cyclo(83-99)MBP83-99, cyclo(83-99)E N P V V H F F K N I V T P R T P] |  |  |  | antibodies were generated |  |  |  | − | highly cross reacted |  |  |  |  |  | 
E N P V V H F F E N I V T P R T P (ENPVVHFFENIVTPRTP) [[E^91]MBP83-99] | +++ | ++ |  |  | ++ |  | + | − | reacted moderately; also recorded: cross reacted weakly | IgG1 |  |  |  |  | 
